# Source: patent US20240197650A1, “Combination of Cinnamaldheyde and Eugenol with Antimycotic Activity” (priority 2021, published 2024)
# Test system: C. albicans strain (C.a. 15)
# Test: Time-kill curve
# Format: cell-based
# Settings: oil at its MFC, 2×10^5 CFU/ml C.a. 15, 35° C.
# Protocol: A C. albicans strain (C.a. 15) was incubated with cinnamaldheyde and eugenol at their MFC. The C. albicans colonies were suspended in Sabouraud broth at a density corresponding to #1.4 McFarland (4×10^6 CFU/ml), then diluted 1/10 (4×10^5 CFU/ml, for a final concentration of 2×10^5 CFU/ml). The suspension was divided into aliquots, two aliquots were incubated with the oils (½ v/v) prepared at a concentration double of their MFC (for a final concentration equal to MFC); the third aliquot was diluted ½ with Sabouraud broth and was used as negative control. The mixtures were incubated at 35° C. on swinging plate. At T0, T1 h, T2 h, T4 h, T6 h, T8 h, T12 h and T24 h, 1/10 serial dilutions were carried out, to determine the total vital count (TVC). From each dilution, 100 μl were seeded in PDA and incubated at 35° C. for 24 hours, then the colonies were counted, their number expressed as CFU/ml. The test was carried out in duplicate.
compound,measurement,setting,value
"C=CCc1ccc(O)c(OC)c1 [Eugenol, eugenol]",time to kill all the fungal cells,,within the first hour
same,time to kill all the fungal cells,listed as eugenol,1 h
